Measurements published in US12012467B2, “Small molecule DCN1 inhibitors and therapeutic methods using the same” (THE REGENTS OF THE UNIVERSITY OF MICHIGAN, priority 2017, dated 2024).
Square brackets hold non-standard residues; d marks the D form. Peptide text beside a SMILES is read from it. * marks the point of attachment. Ala(6-iPr-benzothiazol-2-yl) = CC(C)c1ccc2nc(C[C@H](N)C(=O)O)sc2c1; 2Nal = N[C@@H](Cc1ccc2ccccc2c1)C(=O)O; dLac = C[C@@H](O)C(=O)O; Abu = CC[C@H](N)C(=O)O; Lac = C[C@H](O)C(=O)O; Propionyl = CCC(=O)*; Moc = COC(=O)*; For = O=C*

The compounds below were run against DCN1 (Homo sapiens (Human), UniProt Q96GG9) (assay: Competitive FP binding assay). Conditions: bounds given in μM; read-out: Binding affinity to DCN1 (IC50).
Chain of DCN1 (Q96GG9 58-259): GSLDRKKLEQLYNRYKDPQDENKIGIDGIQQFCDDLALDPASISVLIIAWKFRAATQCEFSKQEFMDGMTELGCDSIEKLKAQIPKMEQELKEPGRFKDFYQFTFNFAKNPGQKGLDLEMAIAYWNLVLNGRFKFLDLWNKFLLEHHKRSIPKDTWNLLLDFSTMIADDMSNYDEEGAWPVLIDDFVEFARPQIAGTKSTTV
Description: Competitive FP Binding Assay
The Fluorescence Polarization (FP) competitive binding assays were performed to accurately determine the binding affinities of our DCN1 inhibitors. […] Serial dilutions of proteins were mixed with 46 to a final volume of 200 μl in the assay buffer (100 mM phosphate buffer, pH=6.5, with 0.02% Tween-20 and 2% DMSO). Final probe concentration was 5 nM for both assays. Plates were incubated at room temperature for 30 minutes with gentle shaking to assure equilibrium.
Pure proteins were derived from the same expression and purification protocols. Plasmids were transformed into Rosetta2 cells, the cells were grown in Terrific Broth at 37° C. to an O.D.600>1.0 and induced with 0.4 mM Isopropyl (3-D-1-thiogalactopyranoside overnight at 20° C. The pelleted cells were resuspended in lysis buffer containing 25 mM Tris-HCl, pH 7.5, 200 mM NaCl and protease inhibitors, sonicated and centrifuged at 34,000×g for 45 minutes to remove debris. Cleared lysate was incubated with Ni-NTA resin (Qiagen) prewashed with lysis buffer, for 1 hr at 4° C. The matrix was loaded into a column then washed with 25 mM Tris-HCl, pH 7.5, 200 mM NaCl and 10 mM imidazole. Protein was eluted with 25 mM Tris-HCl, pH 7.5, 200 mM NaCl and 300 mM imidazole, concentrated and applied to a Superdex 75 (GE Healthcare) column pre-equilibrated with 25 mM Tris pH 7.5, 200 mM NaCl and 1 mM DTT. For DCN2-5, the N-terminal His6 tag was removed prior to gel filtration. Tag removal was achieved through incubation with TEV protease during overnight dialysis against 25 mM Tris pH 7.5, 200 mM NaCl and 1 mM DTT and a second Ni-NTA column. DCN2-5 proteins were stored at −80° C. in 1 mg/mL fractions containing 5% glycerol. The uncleaved DCN1 protein was stored at −80° C. without glycerol.
Work on `CCC(=O)N[C@@H](Cc1cn(-c2cccc(Cl)c2)cn1)C(=O)N[C@H](CN)Cc1ccccc1` [Example 239] yielded an IC50 of over 10 µM.
Work on `CC[C@H](C)[C@H](NC(=O)[C@H](Cc1ccc2ccccc2c1)NC(C)=O)C(=O)N[C@@H](CCCCN)C(=O)N[C@@H](CC(C)C)C(N)=O` [Example 1] (Ac-[2Nal]IKL-NH2) yielded an IC50 of over 10 µM.
With `CC[C@H](C)[C@H](NC(=O)[C@H](Cc1ccc2ccccc2c1)NC(=O)[C@H](C)O)C(=O)N[C@@H](CCCCN)C(=O)N[C@@H](CC(C)C)C(N)=O` [Example 168] (H-[Lac][2Nal]IKL-NH2) the IC50 was over 10 µM.
With `CCC(=O)N[C@H](Cc1nc2ccc(C(C)C)cc2s1)C(=O)N[C@@H](CN)C1CCCCC1` [Example 122, (R)—N—((R)-2-amino-1-cyclohexylethyl)-3-(6-isopropylbenzo[d]thiazol-2-yl)-2-propionamidopropanamide] the IC50 was over 10 µM.
For `CCC(=O)N[C@@H](Cc1nc2ccccc2n1C)C(=O)N[C@H](C(=O)N[C@@H](CCCCN)C(=O)NC(c1ccccc1)c1ccccc1)[C@@H](C)CC` [Example 136], the IC50 was over 5 µM.
Work on `CC[C@H](C)[C@H](NC(=O)[C@H](Cc1ccc2ccccc2c1)NC(=O)[C@@H](C)O)C(=O)N[C@@H](CCCCN)C(=O)N[C@@H](CC(C)C)C(N)=O` [Example 167] (H-[dLac][2Nal]IKL-NH2) yielded an IC50 of over 10 µM.
`CC[C@H](C)[C@H](NC(=O)[C@H](Cc1ccc2ccccc2c1)NC=O)C(=O)N[C@@H](CCCCN)C(=O)N[C@@H](CC(C)C)C(N)=O` [Example 143] (For-[2Nal]IKL-NH2) gave an IC50 of over 10 µM.
For `CCC(=O)N[C@@H](Cc1nc2ccc(C(C)C)cc2s1)C(=O)N[C@@H](CN)Cc1ccccc1` (stereo in doubt) [Example 91], the IC50 was over 10 µM.
Work on `CCC(=O)N[C@H](Cc1nc2ccc(Cl)cc2s1)C(=O)N[C@@H](C[C@H]1CC[C@H](CN)CC1)C(=O)N[C@@H](CCCCN)C(=O)N[C@@H]1CCOc2ccccc21` [Example 201] yielded an IC50 of over 10 µM.
`CCC(=O)N[C@@H](Cc1nc(C)c(-c2ccc([N+](=O)[O-])cc2)s1)C(=O)N[C@H](CN)Cc1ccccc1` [Example 106] showed an IC50 of over 10 µM.
Work on `NCCNC(=O)[C@H](Cc1nc2ccc(Cl)cc2s1)NC(=O)CCOCc1ccccc1` [Example 238] yielded an IC50 of over 10 µM.
With `CCC(=O)N[C@@H](Cc1nc2ccc(Cl)cc2s1)C(=O)NCCN` [Example 235] the IC50 was over 10 µM.
`CCC(=O)N[C@@H](Cc1ccc2ccccc2c1)C(=O)N[C@H](C(=O)N[C@@H](CCCCN)C(=O)NC1CCCCC1)[C@@H](C)CC` [Example 8] gave an IC50 of over 3 µM.
With `CCC(=O)N[C@@H](Cc1nc2ccc(C(C)C)cc2s1)C(=O)N[C@H](CN)Cc1ccccc1` (stereo in doubt) [Example 89] the IC50 was over 10 µM.

Same assay, conditions: read-out: Binding affinity to DCN1 (IC50 (nM))
With `CC[C@H](C)[C@H](NC(=O)[C@H](Cc1nc2ccc(C(C)C)cc2s1)NC(=O)OC)C(=O)N[C@@H](CCCCN)C(=O)N[C@@H](CC(C)C)C(N)=O` [Example 279] (Moc-[Ala(6-iPr-benzothiazol-2-yl)]IKL-NH2) the IC50 was 0.217 µM.
`CCC(=O)N[C@@H](Cc1nc2ccc(C(C)C)cc2s1)C(=O)N[C@@H](CC)C(=O)N[C@@H](CCCCN)C(=O)N[C@@H](CC(C)C)C(N)=O` [Example 281] (Propionyl-[Ala(6-iPr-benzothiazol-2-yl)][Abu]KL-NH2) showed an IC50 of 0.0374 µM.
Work on `CCC(=O)N[C@@H](Cc1nc2ccc(C(C)C)cc2s1)C(=O)N[C@H](CNS(=O)(=O)C1CCN(C)CC1)C1CCCCC1` [Example 76] yielded an IC50 of 0.0657 µM.
`CCC(=O)N[C@@H](Cc1nc2ccc(C)cc2s1)C(=O)N[C@H](C(=O)N[C@@H](CCCCN(C)C)C(=O)N[C@@H]1CCOc2ccccc21)C1CCOCC1` [Example 188] gave an IC50 of 0.156 µM.
`CCC(=O)N[C@@H](Cc1nc2ccc(Cl)cc2o1)C(=O)N[C@H](C(=O)N[C@@H](CCCCN)C(=O)N[C@@H]1CCOc2ccccc21)C1CCOCC1` [Example 198] gave an IC50 of 0.12 µM.
For `CCC(=O)N[C@@H](Cc1nc2ccc(C(C)C)cc2s1)C(=O)N[C@H](CNC(=O)c1ccncc1)C1CCCCC1` [Example 61], the IC50 was 0.128 µM.
With `CCC(=O)N[C@@H](Cc1ccc2ccccc2c1)C(=O)N[C@H](C(=O)N[C@@H](CCCCN)C(=O)N[C@@H]1CCCc2ccccc21)[C@@H](C)CC` [Example 15] the IC50 was 0.461 µM.
Work on `CCC(=O)N[C@@H](Cc1nc2ccc(CC)cc2s1)C(=O)N[C@H](C(=O)N[C@@H](CC1CCNCC1)C(=O)N[C@@H]1CCOc2ccccc21)C1CCOCC1` [Example 192] yielded an IC50 of 0.171 µM.
`CCC(=O)N[C@@H](Cc1ccc2ccccc2c1)C(=O)N[C@H](C(=O)N[C@@H](CCCCN)C(=O)N[C@@H]1CCOc2cccc(Cl)c21)C1CCCC1` [Example 163] gave an IC50 of 0.103 µM.
With `CCC(=O)N[C@@H](Cc1nc2cc(F)ccc2s1)C(=O)N[C@H](C(=O)N[C@@H](CCCCN)C(=O)NC(c1ccccc1)c1ccccc1)C1CCCC1` [Example 27] the IC50 was 1.2 µM.
Work on `CCC(=O)N[C@@H](Cc1nc2ccc(Cl)cc2s1)C(=O)N[C@H](C(=O)N[C@@H](CCCCN)C(=O)N[C@@H]1CNCc2ccccc21)C1CCCC1` [Example 39] yielded an IC50 of 0.173 µM.
With `CCC(=O)N[C@@H](Cc1nc2cc(Cl)ccc2o1)C(=O)N[C@H](C(=O)N[C@@H](CCCCN)C(=O)NC(c1ccccc1)c1ccccc1)[C@@H](C)CC` [Example 155] the IC50 was 1.2 µM.
In the case of `CCC(=O)N[C@@H](Cc1nc2ccc(Cl)cc2s1)C(=O)N[C@H](C(=O)N[C@@H](CCCCN)C(=O)NCc1ccncc1)C1CCOCC1` [Example 243], the IC50 is reported as 1.51 µM.
`CCC(=O)N[C@@H](Cc1nc2ccc(C(C)C)cc2s1)C(=O)N[C@@H](C)C(=O)N[C@@H](CCCCN)C(=O)N[C@@H](CC(C)C)C(N)=O` [Example 280] (Propionyl-[Ala(6-iPr-benzothiazol-2-yl)]AKL-NH2) showed an IC50 of 0.0694 µM.
With `CCC(=O)N[C@@H](Cc1nc2ccccc2o1)C(=O)N[C@H](C(=O)N[C@@H](CCCCN)C(=O)NC(c1ccccc1)c1ccccc1)[C@@H](C)CC` [Example 154] the IC50 was 0.981 µM.
For `CC[C@H](C)[C@H](NC(=O)[C@H](Cc1nc2ccc(C(C)C)cc2s1)NC(C)=O)C(=O)N[C@@H](CCCCN)C(N)=O` [Example 6, (S)-2-((2S,3 S)-2-((S)-2-acetamido-3-(6-isopropylbenzo[d]thiazol-2-yl)propanamido)-3-methylpentanamido)-6-aminohexanamide], the IC50 was 0.632 ± 0.029 µM.
Work on `CCC(=O)N[C@@H](Cc1nc2ccc(C(C)C)cc2s1)C(=O)N[C@H](CNC(=O)C12CCN(CC1)CC2)C1CCCCC1` [Example 64] yielded an IC50 of 0.036 µM.
With `CCC(=O)N[C@@H](Cc1ccc2ccccc2c1)C(=O)N[C@H](C(=O)N[C@@H](CCCCNC1CCN(C)CC1)C(=O)NC(c1ccccc1)c1ccccc1)C1CCCC1` [Example 147] the IC50 was 0.354 µM.
For `CCC(=O)N[C@@H](Cc1nc2ccc(C(C)C)cc2s1)C(=O)N[C@H](CNC(=O)c1c[nH]cn1)C1CCCCC1` [Example 67], the IC50 was 0.257 µM.
`CCC(=O)N[C@@H](Cc1ccc2ccccc2c1)C(=O)N[C@@H](CC(C)(C)C)C(=O)N[C@@H](CCCCN)C(=O)NC(c1ccccc1)c1ccccc1` [Example 22] was tested, and the IC50 was 0.361 µM.
`CCC(=O)N[C@@H](Cc1nc2ccc(C(C)C)cc2s1)C(=O)N[C@H](CN)C1CCCCC1` [Example 56, (S)—N—((S)-2-amino-1-cyclohexylethyl)-3-(6-isopropylbenzo[d]thiazol-2-yl)-2-propionamidopropanamide] was tested, and the IC50 was 0.0796 µM.
For `CC[C@H](C)[C@@H](CN)NC(=O)[C@H](Cc1nc2ccc(C(C)C)cc2s1)NC(=O)C(C)C` [Example 50, (S)—N-((2S,3S)-1-amino-3-methylpentan-2-yl)-2-isobutyramido-3-(6-isopropylbenzo[d]thiazol-2-yl)propanamide], the IC50 was 0.255 ± 0.029 µM.
`CCC(=O)N[C@H](CNC(=O)C1(N)CCCCC1)Cc1nc2ccc(C(C)C)cc2s1` [Example 110] was tested, and the IC50 was 1.91 µM.
`CCC(=O)N[C@@H](Cc1nc2ccc(C)cc2s1)C(=O)N[C@@H](Cc1ccncc1)C(=O)N[C@@H](CCCCN)C(=O)N[C@@H]1CCOc2ccccc21` [Example 184] was tested, and the IC50 was 0.149 µM.
For `CC(C)C(=O)N[C@@H](Cc1nc2ccc(C(C)C)cc2s1)C(=O)N[C@H](CN)C1CCCCC1` [Example 263], the IC50 was 0.139 µM.
Compound `CCC(=O)N[C@@H](Cc1nc(C)c(-c2ccc(F)cc2)s1)C(=O)N[C@H](CN)Cc1ccccc1` [Example 100] has an IC50 of 2.22 µM.
With `CCC(=O)N[C@@H](Cc1nc2ccc(C)cc2s1)C(=O)N[C@H](C(=O)N[C@@H](CCCCN)C(=O)N[C@@H]1CCOc2ccccc21)C1CCCC1` [Example 175] the IC50 was 0.0906 µM.
In the case of `CCC(=O)N[C@@H](Cc1ccc2ccccc2c1)C(=O)N[C@H](C(=O)N[C@@H](CCCCN)C(=O)N[C@H]1CCCc2ccccc21)[C@@H](C)CC` [Example 16], the IC50 is reported as 0.795 µM.
Compound `CCC(=O)N[C@@H](Cc1nc2ccc(C(C)C)cc2s1)C(=O)N[C@H](C(=O)N[C@@H](CCCCN)C(N)=O)C1CCCCC1` [Example 291] has an IC50 of 0.116 µM.
Compound `CCC(=O)N[C@@H](Cc1nc2ccc(CC)cc2s1)C(=O)N[C@H](C(=O)N[C@@H](CCCCN)C(=O)N[C@@H]1CCOc2ccccc21)C1CCCC1` [Example 176] has an IC50 of 0.079 µM.
